System: 242566-281-R-J2-PDC complex spheroid viability
Assay: Anticancer human tumor 242566-281-R-J2-PDC patient-derived pancreatic carcinoma cell line growth inhibition [CLK]
Conditions: for IC50: curve of first compound; for viability, T/C: stronger effect = lower value
Procedure, shortened: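 Patient-derived tumor cells grown as complex spheroids with HUVEC endothelial cells and mesenchymal stem cells, treated with drug combinations. Concentrations descend in half-log steps from near clinical Cmax, or from 10 microM if Cmax unknown.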
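Further: spheroids exposed to compounds for 7 days before readout.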
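Wherever viability, T/C is given: 100% = DMSO vehicle control wells.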

CC1COCCN1c1cc(C2(S(C)(=N)=O)CC2)nc(-c2ccnc3[nH]ccc23)n1 (centres undefined) + CNC(=O)c1ccc(Nc2nc(OC3CCCC3)c3c(-c4ccc5nc(C)oc5c4)c[nH]c3n2)c(OC)c1
IC50 (second compound 0.0316 µM): > 10000 nM | IC50 (second compound 0.1 µM): > 10000 nM | IC50 (second compound 0.316 µM): 7160 nM | IC50 (second compound 1 µM): 763 nM | IC50 (second compound 3.16 µM): 192 nM | IC50 (second compound 10 µM): 61.3 nM | viability, T/C (second compound 0.0316 µM, first compound 0.0316 µM): 89% | viability, T/C (second compound 0.0316 µM, first compound 0.1 µM): 105% | viability, T/C (second compound 0.0316 µM, first compound 0.316 µM): 117% | viability, T/C (second compound 0.0316 µM, first compound 1 µM): 118% | viability, T/C (second compound 0.0316 µM, first compound 3.16 µM): 92.2% | viability, T/C (second compound 0.0316 µM, first compound 10 µM): 61% | viability, T/C (second compound 0.1 µM, first compound 0.0316 µM): 84.7% | viability, T/C (second compound 0.1 µM, first compound 0.1 µM): 90.1% | viability, T/C (second compound 0.1 µM, first compound 0.316 µM): 91.6% | viability, T/C (second compound 0.1 µM, first compound 1 µM): 104% | viability, T/C (second compound 0.1 µM, first compound 3.16 µM): 93% | viability, T/C (second compound 0.1 µM, first compound 10 µM): 55.6% | viability, T/C (second compound 0.316 µM, first compound 0.0316 µM): 76.8% | viability, T/C (second compound 0.316 µM, first compound 0.1 µM): 77.8% | viability, T/C (second compound 0.316 µM, first compound 0.316 µM): 80.3% | viability, T/C (second compound 0.316 µM, first compound 1 µM): 70.8% | viability, T/C (second compound 0.316 µM, first compound 3.16 µM): 71% | viability, T/C (second compound 0.316 µM, first compound 10 µM): 41.7% | viability, T/C (second compound 1 µM, first compound 0.0316 µM): 73.9% | viability, T/C (second compound 1 µM, first compound 0.1 µM): 69.7% | viability, T/C (second compound 1 µM, first compound 0.316 µM): 55.1% | viability, T/C (second compound 1 µM, first compound 1 µM): 49.4% | viability, T/C (second compound 1 µM, first compound 3.16 µM): 34.3% | viability, T/C (second compound 1 µM, first compound 10 µM): 17.7% | viability, T/C (second compound 3.16 µM, first compound 0.0316 µM): 55.2% | viability, T/C (second compound 3.16 µM, first compound 0.1 µM): 55.1% | viability, T/C (second compound 3.16 µM, first compound 0.316 µM): 46.9% | viability, T/C (second compound 3.16 µM, first compound 1 µM): 36.2% | viability, T/C (second compound 3.16 µM, first compound 3.16 µM): 24.6% | viability, T/C (second compound 3.16 µM, first compound 10 µM): 13.4% | viability, T/C (second compound 10 µM, first compound 0.0316 µM): 52.5% | viability, T/C (second compound 10 µM, first compound 0.1 µM): 47.1% | viability, T/C (second compound 10 µM, first compound 0.316 µM): 43.8% | viability, T/C (second compound 10 µM, first compound 1 µM): 33.2% | viability, T/C (second compound 10 µM, first compound 3.16 µM): 22.1% | viability, T/C (second compound 10 µM, first compound 10 µM): 13.5%

NC(=O)C(=Cn1cnc(-c2cc(C(F)(F)F)cc(C(F)(F)F)c2)n1)c1cncnc1 + CNC(=O)c1ccc(Nc2nc(OC3CCCC3)c3c(-c4ccc5nc(C)oc5c4)c[nH]c3n2)c(OC)c1
IC50 (second compound 0.0316 µM): > 3000 nM | IC50 (second compound 0.1 µM): > 3000 nM | IC50 (second compound 0.316 µM): 1980 nM | IC50 (second compound 1 µM): 758 nM | IC50 (second compound 3.16 µM): 409 nM | IC50 (second compound 10 µM): 308 nM | viability, T/C (second compound 0.0316 µM, first compound 0.00949 µM): 119% | viability, T/C (second compound 0.0316 µM, first compound 0.03 µM): 129% | viability, T/C (second compound 0.0316 µM, first compound 0.0949 µM): 128% | viability, T/C (second compound 0.0316 µM, first compound 0.3 µM): 141% | viability, T/C (second compound 0.0316 µM, first compound 0.949 µM): 109% | viability, T/C (second compound 0.0316 µM, first compound 3 µM): 57.1% | viability, T/C (second compound 0.1 µM, first compound 0.00949 µM): 109% | viability, T/C (second compound 0.1 µM, first compound 0.03 µM): 125% | viability, T/C (second compound 0.1 µM, first compound 0.0949 µM): 130% | viability, T/C (second compound 0.1 µM, first compound 0.3 µM): 129% | viability, T/C (second compound 0.1 µM, first compound 0.949 µM): 98% | viability, T/C (second compound 0.1 µM, first compound 3 µM): 51.1% | viability, T/C (second compound 0.316 µM, first compound 0.00949 µM): 106% | viability, T/C (second compound 0.316 µM, first compound 0.03 µM): 91.5% | viability, T/C (second compound 0.316 µM, first compound 0.0949 µM): 117% | viability, T/C (second compound 0.316 µM, first compound 0.3 µM): 122% | viability, T/C (second compound 0.316 µM, first compound 0.949 µM): 69.1% | viability, T/C (second compound 0.316 µM, first compound 3 µM): 39.2% | viability, T/C (second compound 1 µM, first compound 0.00949 µM): 87.2% | viability, T/C (second compound 1 µM, first compound 0.03 µM): 99.1% | viability, T/C (second compound 1 µM, first compound 0.0949 µM): 87.2% | viability, T/C (second compound 1 µM, first compound 0.3 µM): 86.4% | viability, T/C (second compound 1 µM, first compound 0.949 µM): 41.2% | viability, T/C (second compound 1 µM, first compound 3 µM): 12.4% | viability, T/C (second compound 3.16 µM, first compound 0.00949 µM): 77.4% | viability, T/C (second compound 3.16 µM, first compound 0.03 µM): 82.6% | viability, T/C (second compound 3.16 µM, first compound 0.0949 µM): 78.3% | viability, T/C (second compound 3.16 µM, first compound 0.3 µM): 57.9% | viability, T/C (second compound 3.16 µM, first compound 0.949 µM): 25.8% | viability, T/C (second compound 3.16 µM, first compound 3 µM): 5.98% | viability, T/C (second compound 10 µM, first compound 0.00949 µM): 72.5% | viability, T/C (second compound 10 µM, first compound 0.03 µM): 70.6% | viability, T/C (second compound 10 µM, first compound 0.0949 µM): 71.8% | viability, T/C (second compound 10 µM, first compound 0.3 µM): 49.8% | viability, T/C (second compound 10 µM, first compound 0.949 µM): 17.3% | viability, T/C (second compound 10 µM, first compound 3 µM): 4.4%
